Test system: Patients with either ocular hypertension or primary open angle glaucoma
Assay: Study of Compound I in combination with timolol: 12 hour diurnal IOP curve (Goldmann applanation tonometer)
Format: in vivo
Conditions: 2% Compound I, 1 drop to each eye every 12 hours for seven days, ten minutes after timolol 0.5% bid, worse eye analysis, preliminary IOP data
Excerpt: Study of (S,S)-(-)-5,6-dihydro-4-ethylamino-6-methyl-4H-thieno[2,3b]thiopyran-2-sulfonamide-7,7-dioxide (I) in combination with Timolol
Patients aged 40 or over, with either ocular hypertension or primary open angle glaucoma with an intraocular pressure (IOP) in one or both eyes of 22 mmHg or more at one time point each day while receiving timolol 0.5% twice a day (bid) alone were admitted to the study. Patients had been on timolol 0.5% bid, either alone or in combination for at least three weeks prior to study entry and had been on timolol 0.5% bid as their sole glaucoma therapy for at least two weeks prior to study admission.
Secondary glaucoma was an exclusion as was a history of glaucoma surgery or laser trabeculoplasty/gonioplasty. Patients for whom timolol was contraindicated by the datasheet were excluded and also excluded were those on a concurrent β-blocker, carbonic anhydrase inhibitor, or clonidine. […]
• 1. […] Patients were admitted for a 12 hour diurnal curve (i.e., IOP recorded at 08.00, 09.00, 10.00, 12.00, 14.00, 16.00, 18.00, 20.00 hours approximately, the 08.00 recording was immediately prior to instillation of the drops). All pressures were measured by the same observer using the same Goldmann applanation tonometer. • 3. […] On Day 2, the IOP of each patient was measured at 8 am and 9 am, and a 12 hour diurnal curve was recorded on Day 8. preliminary IOP data follow : […]

How did the “effect over the effect of timolol alone (percent change in IOP on Day 8 from prestudy)” value turn out when `CCN[C@H]1C[C@H](C)S(=O)(=O)c2sc(S(N)(=O)=O)cc21` [Compound I, (S,S)-(-)-5,6-dihydro-4-ethylamino-6-methyl-4H-thieno[2,3b]thiopyran-2-sulfonamide-7,7-dioxide] was run?
Its value is 13%-21%.

From patent EP0509752A2, “Ophthalmic compositions comprising combinations of a carbonic anhydrase inhibitor and a beta-adrenergic antagonist” (MERCK & CO. INC., priority 1991, dated 1992)
